± gives the standard deviation of the averaged measurements.
Tests used:
Experiment in all cases: level (log10 ratio to DMSO vehicle control); higher = higher biomarker level / cell amount than vehicle control
[1] = compound: CO[Si](C)(CCC(F)(F)C(F)(F)C(F)(F)C(F)(F)C(F)(F)C(F)(F)F)OC [Dimethoxymethyl((perfluorohexyl)ethyl)silane] (in DMSO)
Procedure: (§1)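 BioMAP Diversity Plus panel of 12 human primary cell co-culture systems (3C, 4H, LPS, SAg, BT, BF4T, BE3C, CASM3C, HDF3CGF, KF3CT, MyoF, Mphg). Compounds were added 1 h before stimulation and left for 24 h (MyoF 48 h; BT 72 h for soluble read-outs or 6 d for IgG). Biomarkers were read by ELISA, cytotoxicity by SRB, PBMC viability and proliferation by Alamar Blue. Each well value was divided by the mean of 8 DMSO control wells on the same plate and log10 transformed; duplicate blinded samples were tested at 4 concentrations.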

[2] = compound: C[C@@H]1C[C@H]2[C@@H]3CCC4=CC(=O)C=C[C@]4(C)[C@@]3(F)[C@@H](O)C[C@]2(C)[C@@]1(O)C(=O)COP(=O)(O)O [Dexamethasone sodium phosphate] (in DMSO)
Procedure: as §1

Perfluorononanoic acid = compound: O=C(O)C(F)(F)C(F)(F)C(F)(F)C(F)(F)C(F)(F)C(F)(F)C(F)(F)C(F)(F)F [Perfluorononanoic acid] (in DMSO)
Procedure: as §1

[3] = compound: O=C(O)C(F)(F)C(F)(F)C(F)(F)OC(F)(F)F [Perfluoro(4-methoxybutanoic) acid] (in DMSO)
Procedure: as §1

[4] = compound: O=C(O)C(F)(OC(F)(F)C(F)(F)C(F)(F)F)C(F)(F)F [Ammonium perfluoro-2-methyl-3-oxahexanoate] (in Water)
Procedure: as §1

[5] = compound: OCC(F)(F)C(F)(F)C(F)(F)C(F)(F)C(F)(F)C(F)(F)CO [1H,1H,8H,8H-Perfluorooctane-1,8-diol] (in DMSO)
Procedure: as §1

Test System | level (log10) ([1]; 6700 nM) | level (log10) ([1]; 20000 nM) | level (log10) ([2]; 1500 nM) | level (log10) ([2]; 4400 nM) | level (log10) ([2]; 13000 nM) | level (log10) ([2]; 40000 nM) | level (log10) (Perfluorononanoic acid; 6700 nM) | level (log10) (Perfluorononanoic acid; 20000 nM) | level (log10) ([3]; 6700 nM) | level (log10) ([3]; 20000 nM) | level (log10) ([3]; 60000 nM) | level (log10) ([4]; 6700 nM) | level (log10) ([4]; 20000 nM) | level (log10) ([4]; 60000 nM) | level (log10) ([5]; 6700 nM) | level (log10) ([5]; 20000 nM) | level (log10) ([5]; 60000 nM)
SAg:CD38 | 0.0075 ± 0.018 | 0.014 ± 0.0028 | -0.014 ± 0.018 | -0.027 ± 0.021 | -0.037 ± 0.0028 | -0.0215 ± 0.023 | 0.0155 ± 0.069 | 0.0205 ± 0.056 | -0.0375 ± 0.016 | -0.0225 ± 0.005 | -0.0195 ± 0.0035 | 0.003 ± 0.011 | 0.008 ± 0.0085 | -0.0055 ± 0.019 | -0.0105 ± 0.011 | -0.003 ± 0.02 | -0.013 ± 0.0028
BE3C:IL-1alpha | 0.0025 ± 0.018 | 0.021 ± 0.0071 | -0.025 ± 0.0028 | -0.054 ± 0.0028 | -0.0395 ± 0.0092 | -0.0225 ± 0.036 | -0.032 ± 0.024 | -0.0625 ± 0.023 | -0.0045 ± 0.037 | 0.014 ± 0.0042 | 0.0245 ± 0.0021 | -0.0215 ± 0.013 | -0.001 ± 0.0028 | -0.0085 ± 0.005 | 0.002 ± 0.0042 | 0.0015 ± 0.0064 | 0.0055 ± 0.029
BT:sIL-17A | -0.0265 ± 0.029 | -0.025 ± 0.17 | -0.776 ± 0.019 | -0.55 ± 0.03 | -0.652 ± 0.057 | -0.717 ± 0.042 | -0.05 ± 0.0085 | 0.0015 ± 0.022 | -0.082 ± 0.0028 | -0.0755 ± 0.083 | 0.0425 ± 0.16 | 0.001 ± 0.02 | 0.036 ± 0.037 | -0.174 ± 0.096 | -0.0535 ± 0.14 | -0.25 ± 0.073 | -0.393 ± 0.085
3C:Proliferation | 0.003 ± 0.014 | -0.0055 ± 0.03 | -0.0115 ± 0.005 | 0.011 ± 0.092 | -0.0045 ± 0.052 | 0.015 ± 0.02 | 0.0095 ± 0.073 | 0.0795 ± 0.03 | -0.057 ± 0.023 | -0.0055 ± 0.046 | -0.036 ± 0.03 | -0.0765 ± 0.015 | -0.136 ± 0.031 | -0.149 ± 0.023 | -0.059 ± 0.024 | -0.0565 ± 0.013 | -0.106 ± 0.042

From the supplement of paper PMC10331698
